From patent publication US8697667B2, “Cyclodextrin-modified polyamines for delivery of therapeutic molecules” (Rutgers, The State University of New Jersey, priority 2010, dated 2014) come the findings set out here.

Read-outs that look alike come from different tables or passages of the source. Some results are limits rather than exact numbers.

One data set in a line: Aqueous solubility. Format: physicochemical.
A further data set deals with glioblastoma cells. Put plainly: Annexin-V/Propidium Iodide apoptosis assay. Format: cell-based. To be noted: combined with siRNA against EGFRvIII (200 nM), polymer 100 μM; SAHA 5 μM, erlotinib 30 μM; versus individual treatments. From the text:
Cells were harvested by trypsinization and stained using an Annexin V FITC Apoptosis Detection kit (Roche, Cambridge, Mass.) according to the manufacturer's protocol. The stained cells were immediately analyzed by flow cytometry (FACScan; Becton Dickinson, Franklin Lake, N.J.). Early apoptotic cells with exposed phosphatidylserine but intact cell membranes bound to Annexin V-FITC but excluded propidium iodide. Cells in necrotic or late apoptotic stages were labeled with both Annexin V-FITC and propidium iodide.

As for `OC[C@H]1O[C@@H]2O[C@H]3[C@H](O)[C@@H](O)[C@@H](O[C@H]4[C@H](O)[C@@H](O)[C@@H](O[C@H]5[C@H](O)[C@@H](O)[C@@H](O[C@H]6[C@H](O)[C@@H](O)[C@@H](O[C@H]7[C@H](O)[C@@H](O)[C@@H](O[C@H]8[C@H](O)[C@@H](O)[C@@H](O[C@H]1[C@H](O)[C@H]2O)O[C@@H]8CO)O[C@@H]7CO)O[C@@H]6CO)O[C@@H]5CO)O[C@@H]4CO)O[C@@H]3CO` [CD, β-cyclodextrin], in “Aqueous solubility”, the aqueous solubility is given as less than 1.8 g/100 mL.
`O=C(CCCCCCC(=O)Nc1ccccc1)NO` [SAHA, suberoylanilide hydroxamic acid]: the “induction of apoptosis (Annexin-V-FITC-positive cells)” value in the data set with glioblastoma cells is reported as “greater induction of apoptosis”.
For the compound `C#Cc1cccc(Nc2ncnc3cc(OCCOC)c(OCCOC)cc23)c1` [erlotinib, N-(3-ethynylphenyl)-6,7-bis(2-methoxyethoxy)quinazolin-4-amine], the “induction of apoptosis (Annexin-V-FITC-positive cells)” value with glioblastoma cells is given as “cooperative induction of apoptosis”. Further, the aqueous solubility in “Aqueous solubility” (drug loaded into / complexed with β-CD cavity) came out at 178 mg/100 mL.
